The values below come from US8486931B2, “Substituted oxindole compounds” (Abbott GmbH & Co. KG, priority 2007, dated 2013).

Structures can show the parent of a compound that is named as a salt.

This assay deals with T1, human vasopressin V1b receptor (Homo sapiens, UniProt P47901).
T1 construct: expressed in transfected cells; host or cells: CHO-K1 (cell line hV1b-3H2_CHO), membrane preparation
T1 sequence (P47901 1-424): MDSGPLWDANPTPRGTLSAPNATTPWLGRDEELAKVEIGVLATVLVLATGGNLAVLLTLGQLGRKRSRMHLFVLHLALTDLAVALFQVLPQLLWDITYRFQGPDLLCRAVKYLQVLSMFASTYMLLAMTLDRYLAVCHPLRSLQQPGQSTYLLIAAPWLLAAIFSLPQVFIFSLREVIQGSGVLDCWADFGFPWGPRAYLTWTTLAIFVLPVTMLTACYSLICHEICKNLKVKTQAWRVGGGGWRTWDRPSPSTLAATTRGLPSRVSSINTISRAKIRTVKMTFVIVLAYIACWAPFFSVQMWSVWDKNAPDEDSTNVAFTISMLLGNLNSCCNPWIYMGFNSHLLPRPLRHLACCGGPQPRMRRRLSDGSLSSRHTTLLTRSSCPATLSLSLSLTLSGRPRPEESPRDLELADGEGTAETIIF
The assay is described as follows: Vasopressin V1b receptor binding assay. The conditions noted are these: membranes from CHO-K1 cells with stably expressed human V1b receptors, 1.5 nM 3H-AVP displacement; with more than one stereogenic center: the diastereomer with stronger affinity. In a few lines:
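Membranes bearing human V1b receptor incubated 60 min at room temperature in 50 mM Tris, 10 mM MgCl2, 0.1% BSA, pH 7.4, 2% DMSO, triplicate.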
A word on the Ki: it is the equilibrium dissociation constant of an inhibitor or competing ligand from its target. The compound `CCOc1ccc(OC)cc1C1(N2CCCN(c3ccnc(C)c3)CC2)C(=O)N(S(=O)(=O)c2cccc3cccnc23)c2ccc(C#N)cc21` (racemic) [Example 62, (±)-5-Cyano-3-(2-ethoxy-5-methoxyphenyl)-3-[4-(2-methylpyridin-4-yl)-[1,4]diazepan-1-yl]-1-(quinoline-8-sulfonyl)-2,3-dihydro-1H-indol-2-one] displayed a Ki of less than 0.01 µM. The figure for `CCOc1ccc(OC)cc1C1(N2CCCN(c3ccnc(C)c3)CC2)C(=O)N(S(=O)(=O)c2ccc(OC)cn2)c2ccc(C#N)cc21` (racemic) [Example 65, (±)-5-Cyano-3-(2-ethoxy-5-methoxyphenyl)-1-(5-methoxypyridine-2-sulfonyl)-3-[4-(2-methylpyridin-4-yl)-[1,4]diazepan-1-yl]-2,3-dihydro-1H-indol-2-one] is less than 0.01 µM; for `CCOc1ccc(OC)cc1C1(N2CCN(c3ccnc(C4CC4)c3)CC2)C(=O)N(S(=O)(=O)c2cccc3cccnc23)c2ccc(C#N)cc21` (racemic) [Example 66, (±)-5-Cyano-3-[4-(2-cyclopropylpyridin-4-yl)piperazin-1-yl]-3-(2-ethoxy-5-methoxyphenyl)-1-(quinoline-8-sulfonyl)-2,3-dihydro-1H-indol-2-one] it is less than 0.01 µM; for `CCOc1ccc(OC)cc1C1(N2CC3CN(c4ccncc4)CC3C2)C(=O)N(S(=O)(=O)c2ccc(OC)cn2)c2ccc(C#N)cc21` (racemic) [Example 68, (±)-5-Cyano-3-(2-ethoxy-5-methoxyphenyl)-1-(5-methoxypyridine-2-sulfonyl)-3-(5-pyridin-4-ylhexahydropyrrolo[3,4-c]pyrrol-2-yl)-2,3-dihydro-1H-indol-2-one] it is less than 0.01 µM.

With `CCOc1ccc(OC)cc1C1(N2CCN(C3CCNCC3)CC2)C(=O)N(S(=O)(=O)c2ccc(OC)c3cccnc23)c2ccc(C#N)cc21` (racemic) [Example 69, (±)-5-Cyano-3-(2-ethoxy-5-methoxyphenyl)-1-(5-methoxyquinoline-8-sulfonyl)-3-(4-piperidin-4-ylpiperazin-1-yl)-2,3-dihydro-1H-indol-2-one hydrochloride], the Ki was 0.01 to 0.05 µM. The figure for `CCOc1ccc(OC)cc1C1(N2CCN(c3ccnc(C4CC4)c3)CC2)C(=O)N(S(=O)(=O)c2ccc(OC)c3cccnc23)c2ccc(C#N)cc21` (racemic) [Example 70, (±)-5-Cyano-3-[4-(2-cyclopropylpyridin-4-yl)piperazin-1-yl]-3-(2-ethoxy-5-methoxyphenyl)-1-(5-methoxyquinoline-8-sulfonyl)-2,3-dihydro-1H-indol-2-one] is less than 0.01 µM; for `CCOc1nc(Cl)ccc1C1(N2CCCN(c3ccncc3)CC2)C(=O)N(S(=O)(=O)c2ccc(OC)c3cccnc23)c2ccc(C#N)cc21` (racemic) [Example 71, (±)-5-Cyano-3-(6-chloro-2-ethoxypyridin-3-yl)-1-(5-methoxyquinoline-8-sulfonyl)-3-(4-pyridin-4-yl-[1,4]diazepan-1-yl)-2,3-dihydro-1H-indol-2-one] it is 0.01 to 0.05 µM; for `CCOc1ccc(OC)cc1C1(N2CCN(c3ccnc(CC)c3)CC2)C(=O)N(S(=O)(=O)c2ccc(OC)c3cccnc23)c2ccc(C#N)cc21` (racemic) [Example 72, (±)-5-Cyano-3-(2-ethoxy-5-methoxyphenyl)-3-[4-(2-ethylpyridin-4-yl)piperazin-1-yl]-1-(5-methoxyquinoline-8-sulfonyl)-2,3-dihydro-1H-indol-2-one] it is 0.01 to 0.05 µM. The same measure for `CCOc1ccc(OC)cc1C1(N2CCCN(c3ccnc(C)c3)CC2)C(=O)N(S(=O)(=O)c2ccc(OC)c3cccnc23)c2ccc(C#N)cc21` (racemic) [Example 73, (±)-5-Cyano-3-(2-ethoxy-5-methoxyphenyl)-1-(5-methoxyquinoline-8-sulfonyl)-3-[4-(2-methylpyridin-4-yl)-[1,4]diazepan-1-yl]-2,3-dihydro-1H-indol-2-one]: less than 0.01 µM. The same measure for `CCOc1ccc(OC)cc1C1(N2CC3CN(c4ccncc4)CC3C2)C(=O)N(S(=O)(=O)c2ccc(OC)c3cccnc23)c2ccc(C#N)cc21` (racemic) [Example 74, (±)-5-Cyano-3-(2-ethoxy-5-methoxyphenyl)-1-(5-methoxyquinoline-8-sulfonyl)-3-(5-pyridin-4-ylhexahydropyrrolo[3,4-c]pyrrol-2-yl)-2,3-dihydro-1H-indol-2-one]: 0.01 to 0.05 µM; for `CCOc1ccccc1C1(N2CCCN(c3ccncc3)CC2)C(=O)N(S(=O)(=O)c2ccc(OC)cn2)c2ccc(C#N)cc21` (racemic) [Example 78, (±)-5-Cyano-3-(2-ethoxyphenyl)-1-(5-methoxypyridine-2-sulfonyl)-3-(4-pyridin-4-yl-[1,4]diazepan-1-yl)-2,3-dihydro-1H-indol-2-one]: 0.01 to 0.05 µM. The compound `CCOc1ccccc1C1(N2CCN(c3ccnc(C)c3)CC2)C(=O)N(S(=O)(=O)c2ccc(OC)cn2)c2ccc(C#N)cc21` (racemic) [Example 79, (±)-5-Cyano-3-(2-ethoxyphenyl)-1-(5-methoxypyridine-2-sulfonyl)-3-[4-(2-methyl-pyridin-4-yl)piperazin-1-yl]-2,3-dihydro-1H-indol-2-one] came in with an inhibitory constant (Ki) of less than 0.01 µM.

Compound `CCOc1ccc(OC)cc1C1(N2CCN(c3ccncc3)CC2)C(=O)N(S(=O)(=O)c2ccc(OC)c3cccnc23)c2ccc(C#N)cc21` (racemic) [Example 80, (±)-5-Cyano-3-(2-ethoxy-5-methoxyphenyl)-1-(5-methoxyquinoline-8-sulfonyl)-3-(4-pyridin-4-ylpiperazin-1-yl)-2,3-dihydro-1H-indol-2-one] displayed a Ki of less than 0.01 µM. The same measure for `CCOc1ccc(OC)cc1C1(N2CCN(c3ccncc3)CC2)C(=O)N(S(=O)(=O)c2ccc(F)c3cccnc23)c2ccc(C#N)cc21` (racemic) [Example 81, (±)-5-Cyano-3-(2-ethoxy-5-methoxyphenyl)-1-(5-fluoroquinoline-8-sulfonyl)-3-(4-pyridin-4-ylpiperazin-1-yl)-2,3-dihydro-1H-indol-2-one]: less than 0.01 µM; for `CCOc1ccc(OC)cc1C1(N2CCN(c3ccncc3)CC2)C(=O)N(S(=O)(=O)c2ccc(OC)cn2)c2ccc(C#N)cc21` (racemic) [Example 82, (±)-5-Cyano-3-(2-ethoxy-5-methoxyphenyl)-1-(5-methoxypyridine-2-sulfonyl)-3-(4-pyridin-4-ylpiperazin-1-yl)-2,3-dihydro-1H-indol-2-one]: less than 0.01 µM. For the compound `CCOc1ccccc1C1(N2CCN(C3CCN(C)CC3)CC2)C(=O)N(S(=O)(=O)c2ccc(OC)cn2)c2ccc(C#N)cc21` (racemic) [Example 83, (±)-5-Cyano-3-(2-ethoxyphenyl)-1-(5-methoxypyridine-2-sulfonyl)-3-[4-(1-methyl-piperidin-4-yl)piperazin-1-yl]-2,3-dihydro-1H-indol-2-one], the inhibitory constant (Ki) is 0.01 to 0.05 µM. The same measure for `CCOc1ccccc1C1(N2CCN(c3ccncc3)CC2)C(=O)N(S(=O)(=O)c2cccc3c(CC)ccnc23)c2ccc(C#N)cc21` (racemic) [Example 84, (±)-5-Cyano-3-(2-ethoxyphenyl)-1-(4-ethylquinoline-8-sulfonyl)-3-(4-pyridin-4-yl-piperazin-1-yl)-2,3-dihydro-1H-indol-2-one]: less than 0.01 µM; for `CCOc1nc(Cl)ccc1C1(N2CCN(c3ccnc(C)c3)CC2)C(=O)N(S(=O)(=O)c2ccc(OC)c3cccnc23)c2ccc(C#N)cc21` (racemic) [Example 85, (±)-5-Cyano-3-(6-chloro-2-ethoxypyridin-3-yl)-1-(5-methoxyquinoline-8-sulfonyl)-3-[4-(2-methylpyridin-4-yl)piperazin-1-yl]-2,3-dihydro-1H-indol-2-one]: less than 0.01 µM; for `CCOc1ccc(OC)cc1C1(N2CCC(N3CCNCC3)CC2)C(=O)N(S(=O)(=O)c2ccc(OC)cn2)c2ccc(C#N)cc21` (racemic) [Example 86, (±)-5-Cyano-3-(2-ethoxy-5-methoxyphenyl)-1-(5-methoxypyridine-2-sulfonyl)-3-(4-piperazin-1-ylpiperidin-1-yl)-2,3-dihydro-1H-indol-2-one]: less than 0.01 µM. The same measure for `CCOc1ccc(OC)cc1C1(N2CCC(N3CCNCC3)CC2)C(=O)N(S(=O)(=O)c2ccc(OC)c3cccnc23)c2ccc(C#N)cc21` (racemic) [Example 87, (±)-5-Cyano-3-(2-ethoxy-5-methoxyphenyl)-1-(5-methoxyquinoline-8-sulfonyl)-3-(4-piperazin-1-ylpiperidin-1-yl)-2,3-dihydro-1H-indol-2-one hydrochloride]: less than 0.01 µM; for `CCOc1ccccc1C1(N2CCN(c3ccncc3)CC2)C(=O)N(S(=O)(=O)c2ccc(C)c3cccnc23)c2ccc(C#N)cc21` (racemic) [Example 88, (±)-5-Cyano-3-(2-ethoxyphenyl)-1-(5-methylquinoline-8-sulfonyl)-3-(4-pyridin-4-yl-piperazin-1-yl)-2,3-dihydro-1H-indol-2-one]: 0.01 to 0.05 µM; for `CCOc1cc(F)ccc1C1(N2CCN(c3ccnc(C)c3)CC2)C(=O)N(S(=O)(=O)c2ccc(OC)cn2)c2ccc(C#N)cc21` (racemic) [Example 144, (±)-5-Cyano-3-(2-ethoxy-4-fluoro-phenyl)-1-(5-methoxy-pyridine-2-sulfonyl)-3-[4-(2-methyl-pyridin-4-yl)-piperazin-1-yl]-2,3-dihydro-1H-indol-2-one]: less than 0.01 µM.
